Columns and labels:
[1] = biological target: AKT1 (Homo sapiens, UniProt P31749); test: Biochemical assay for inhibitors of AKT1 kinase activity (33P trans-phosphorylation, Dowex resin); design: made in house; details: 5 nM enzyme, 132 microM ATP, 30 microM peptide substrate; read-out: AKT1 IC50 (µM) Biochem assay
Procedure: (§1) The N-terminal GST fusion proteins used for the assays were prepared according to the methods described in Kumar, C. C. Biochem. Biophys. ACTA 2001, 1526, 257-268, and in Alessi, D. R.. Biochem. J. 1998 331, 299-308.
The inhibitory activity of putative kinase inhibitors and the potency of selected compounds were determined using a trans-phosphorylation assay.
A specific substrate was incubated with the kinase in appropriate buffer conditions in the presence of ATP traced with ^33P-γ-ATP (gamma phosphate-labeled, Redivue™ Code Number AH9968, 1000-3000Ci/mmole, Amersham Biosciences Piscataway, NJ, USA), optimal cofactors and test compound.
At the end of the phosphorylation reaction, more than 98% cold and radioactive ATP were captured by an excess of Dowex ion exchange resin. The resin was allowed to settle to the bottom of reaction wells by gravity. Supernatant, containing substrate peptide, was subsequently withdrawn and transferred into a counting plate, and radioactivity (corresponding to phosphate incorporated into peptide) was evaluated by β-counting.
Kinase buffer was composed of 50 mM TRIS pH 7.5 containing10 mM MgCl2, 1 mM DTT, 3 microM Na3VO4, and 0.2 mg/mL BSA. 3X KB is buffer of the same composition and pH as KB, but with three times the concentration of each component. iii.Assay conditions (final concentrations) for AKT1.
The kinase assay was run with a final enzyme concentration of 5 nM, in the presence of 132 microM ATP, 0.88 nM ^33P-γ-ATP and 30 microM substrate, a carboxy-terminally biotinylated peptide of the following sequence: ARKRERTYSFGHHA-biotin. The peptide was obtained in batches of >95% peptide purity from PRIMM labs Inc. (Boston MA, USA).
The "test" mixture of 15 microL consisting of: • 1) 5 µl/well of 3x Enzyme mix (done in Kinase Buffer 3X), • 2) 5 µl/well of 3x substrate and ATP mix (done in ddH2O), together with ^33P-γ-ATP, • 3) 5 µl/well of 3x test compounds (diluted into ddH2O - 3% DMSO).
For % inhibition studies, dilution plates at 1 mM, 10 microM and 100 microM were prepared in 100% DMSO, then diluted to 3X final desired concentration (30, 3 and 0.3 microM) in ddH2O, 3% DMSO. A Multimek 96 (Beckman Coulter, Inc. 4300 N. Harbor Boulevard, P.O. Box 3100 Fullerton, CA 92834-3100 USA) was used for compound pipetting into test plates.
For IC50 determination, starting solutions of 30 microM compound in 3% DMSO were derived from 1 mM/100% DMSO stock solutions. These 30 microM starting solutions were used for generation of a further 9 serial 1/3 dilutions in ddH20, 3% DMSO, so as to generate a 10-point dilution curve at 3X the final assay concentration. Serial dilution was conducted in 96-well plates using a Biomek 2000 (Beckman Coulter) system. Dilution curves of 7 compounds/plate were prepared, and each plate also included a 10-point dilution curve of Staurosporine, as well as several negative and positive control wells.
384-well plates, V bottom (test plates) are prepared with 5 µl of the compound dilution (3X) and then placed onto a PlateTrak 12 robotized station (Perkin Elmer; the robot has one 384-tips pipetting head for starting the assay plus one 96-tips head for dispensing the resin) together with one reservoir for the Enzyme mix (3X) and one for the ATP mix (3X).
At the start of the run, the robot aspirates 5 µl of ATP mix, makes an air gap inside the tips (3 µl) and aspirates 5 µl of AKT mix. The following dispensation into the plates allows the kinase reaction to start upon 3 cycles of mixing, done by the robot itself.
The robot incubates the plates for 60 minutes at room temperature, and then stops the reaction by pipetting 70 µl of dowex resin suspension into the reaction mix. Three cycles of mixing are done immediately after the addition of the resin.
Another mixing cycle is performed after all the plates are stopped, this time using normal tips: the plates are then allowed to rest for about one hour in order to maximize ATP capture. […]

[2] = biological target: T1, AKT2 (Homo sapiens, UniProt P31751); test: Biochemical assay for inhibitors of AKT2 kinase activity (33P trans-phosphorylation, Dowex resin); details: 10 nM enzyme, 396 microM ATP, 8.5 microM peptide substrate; read-out: AKT2 IC50 (µM) Biochem assay
T1 construct: made in house
T1 sequence (P31751 whole entry, species assumed): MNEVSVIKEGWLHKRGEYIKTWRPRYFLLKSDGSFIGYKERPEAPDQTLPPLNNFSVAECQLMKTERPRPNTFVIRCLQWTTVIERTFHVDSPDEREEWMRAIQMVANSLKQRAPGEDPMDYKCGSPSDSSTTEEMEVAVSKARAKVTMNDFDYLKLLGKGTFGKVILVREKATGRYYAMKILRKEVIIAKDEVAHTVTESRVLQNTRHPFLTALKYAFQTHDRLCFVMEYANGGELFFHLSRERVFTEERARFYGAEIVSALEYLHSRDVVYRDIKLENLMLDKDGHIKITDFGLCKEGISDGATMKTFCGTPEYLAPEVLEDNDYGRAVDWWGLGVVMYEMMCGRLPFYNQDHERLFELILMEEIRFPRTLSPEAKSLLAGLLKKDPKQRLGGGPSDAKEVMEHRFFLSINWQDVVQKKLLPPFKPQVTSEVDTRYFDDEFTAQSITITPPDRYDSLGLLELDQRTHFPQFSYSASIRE
Procedure: as §1
(§2) The in vitro kinase inhibition assay was conducted in the same way as described for AKT1. The kinase assay was run with a final enzyme concentration of 10 nM, in the presence of 396 microM ATP, 0.88 nM ^33P-γ-ATP and 8.5 microM substrate, a carboxy-terminally biotinylated peptide of the following sequence: ARKRERTYSFGHHA-biotin. The peptide was obtained in batches of >95% peptide purity from PRIMM labs Inc. (Boston MA, USA).

[3] = biological target: AKT3 (Homo sapiens, UniProt Q9Y243); test: Biochemical assay for inhibitors of AKT3 kinase activity (33P trans-phosphorylation, Dowex resin); details: 1 nM enzyme, 180 microM ATP, 28.5 microM peptide substrate; read-out: AKT3 IC50 (µM) Biochem assay
Sequence of AKT3 (Q9Y243 2-479): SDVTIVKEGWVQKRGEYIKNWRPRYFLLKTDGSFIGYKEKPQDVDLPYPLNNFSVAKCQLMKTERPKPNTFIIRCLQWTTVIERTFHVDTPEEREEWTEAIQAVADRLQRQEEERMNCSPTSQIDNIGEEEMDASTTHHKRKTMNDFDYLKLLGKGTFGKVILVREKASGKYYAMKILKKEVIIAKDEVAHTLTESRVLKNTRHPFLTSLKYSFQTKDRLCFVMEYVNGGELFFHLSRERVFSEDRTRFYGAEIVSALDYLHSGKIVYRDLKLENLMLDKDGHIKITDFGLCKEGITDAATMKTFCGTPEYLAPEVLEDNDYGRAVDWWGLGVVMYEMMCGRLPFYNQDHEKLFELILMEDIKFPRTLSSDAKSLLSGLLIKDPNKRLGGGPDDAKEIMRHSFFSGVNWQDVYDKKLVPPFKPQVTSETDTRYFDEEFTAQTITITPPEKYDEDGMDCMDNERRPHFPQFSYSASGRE
Procedure: as §1
as §2, with “1” for “10”, “180” for “396”, “28.5” for “8.5”

Sequence of AKT1 (P31749 whole entry, the tested form may be a part): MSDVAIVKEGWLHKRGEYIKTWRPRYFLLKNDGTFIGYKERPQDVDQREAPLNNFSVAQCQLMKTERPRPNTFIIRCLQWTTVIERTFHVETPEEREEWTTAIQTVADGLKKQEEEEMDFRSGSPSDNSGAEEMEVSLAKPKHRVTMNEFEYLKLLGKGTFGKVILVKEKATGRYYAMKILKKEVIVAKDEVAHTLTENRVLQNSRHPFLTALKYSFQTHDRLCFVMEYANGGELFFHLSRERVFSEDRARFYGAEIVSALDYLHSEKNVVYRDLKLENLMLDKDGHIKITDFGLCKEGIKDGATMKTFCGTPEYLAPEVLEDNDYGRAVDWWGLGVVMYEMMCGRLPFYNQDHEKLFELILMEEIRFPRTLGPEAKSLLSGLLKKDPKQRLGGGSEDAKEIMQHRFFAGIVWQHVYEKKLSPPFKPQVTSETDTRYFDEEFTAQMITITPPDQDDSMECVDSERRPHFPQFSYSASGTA

IC50 [1] | IC50 [2] | IC50 [3] | Compound
0.05 µM | 0.266 µM | 0.032 µM | NC[C@H](Cc1ccccc1)NC(=O)C1=Cc2c[nH]c3nccc(c23)CC1 [Cpd. 1, N-[(1S)-2-amino-1-benzylethyl]-6,7-dihydro-2H-2,3-diazabenzo[cd]azulene-8-carboxamide]
0.184 µM | 1.99 µM | 0.187 µM | CC(=O)N1CC(C(=O)N[C@H](CN)Cc2ccccc2)=Cc2c[nH]c3nccc1c23 [Cpd. 3, 6-acetyl-N-[(1S)-2-amino-1-benzylethyl]-6,7-dihydro-2H-2,3,6-triazabenzo[cd]azulene-8-carboxamide]
0.121 µM | 0.362 µM | 0.043 µM | O=C(N[C@H](CN1CCCC1)c1ccccc1)C1=Cc2c[nH]c3nccc(c23)CC1 [Cpd. 6, N-[(1S)-1-phenyl-2-pyrrolidin-1-ylethyl]-6,7-dihydro-2H-2,3-diazabenzo[cd]azulene-8-carboxamide]
0.017 µM | 0.155 µM | 0.041 µM | NC[C@H](Cc1ccccc1)NC(=O)C1=Cc2c[nH]c3nccc(c23)NC1 [compound 2, N-[(1S)-2-amino-1-benzylethyl]-6,7-dihydro-2H-2,3,6-triazabenzo[cd]azulene-8-carboxamide]

Source: patent EP2002836B1, “Cyclocondensed azaindoles active as kinase inhibitors” (Nerviano Medical Sciences S.r.l., priority 2007, dated 2008)
